Laboratory results: patent US20200113902A1, “COMPOSITIONS AND METHODS FOR TREATING CANCERS WITH COVALENT INHIBITORS OF CYCLIN-DEPENDENT KINASE 7 (CDK7)” (Syros Pharmaceuticals, Inc., priority 2017, published 2020)

Assays:
[1] = system: MCL1 protein in OC1M1 cells; assay: Western blot, AML cell line OC1M1; type: cell-based; conditions: OC1M1 (high BCL-XL); 50 nM
Protocol: (§1) Cytotoxic cancer cell lines HCC70 and TOV21G, and cytostatic cancer cell lines T47D and COV318 were seeded in wells of a six-well dish at a density of 1×10^6 cells/well and allowed to adhere overnight. Cells were then treated with 50 nM of Compound 1 for 16 or 24 hours, or with DMSO (0 hours) representing a negative control. Cells were harvested and placed on ice, and resuspended in RIPA lysis buffer supplemented with protease and phosphatase inhibitors. Clarified lysates prepared with 4×LSD running buffer and boiled at 95° C. for 5 minutes. Equivalent amounts of sample (10 μg total protein) were run on a 4-12% Bis-Tris gel and transferred to a PDVF membrane for Western blotting using standard Western blotting protocols. Membranes were blocked with Licor TBS blocking buffer then probed with antibodies for BCL-XL, BCL-2, MCL1, BID, and GAPDH visualized using and Odyssey imager (FIGS. 23A and 23D).
(§2) We next explored the expression of MCL1, BCL-XL and BCL2 in four different AML cell lines. MV411, OCI-AML3 and KG1 cells were separately grown and prepared as described in Example 2 for Western blotting, using antibodies specific for BCL2 (FIG. 24A), BCL-XL, MCL-1 and tubulin as an internal control (FIG. 24B).

[2] = system: gene expression in MDA-MB468 cells; assay: Gene expression profiling via RNA-seq (DESeq2, linear model), MDA-MB468; type: cell-based; conditions: four hours, JQ1 125 nM, Compound 1 25 nM
Protocol: In addition, we compared the ability of JQ1 alone, Compound 1 alone, and a combination of JQ1 and Compound 1 to modify expression of various genes in two breast cancer cell lines. Two triple-negative breast cancer cell lines (HCC70 and MDA-MB468) were tested. The cell lines were treated with JQ1, Compound 1, the JQ1/Compound 1 combination, or DMSO for four hours, after which gene expression profiling via RNA-seq was performed. JQ1 was administered to the cells at a 125 nM final concentration in both single agent and combination experiments. Compound 1 was administered to the cells at a 25 nM final concentration in both single agent and combination experiments. Each experiment was performed in triplicate. One replicate of MDA-MB-468 treated with single-agent JQ1 was excluded from further analysis due to quality.
We employed DESeq2 (Love et al., Genome Biology, 15(12):550, 2014) to identify changes in gene expression due to the JQ1, Compound 1, and JQ1-Compound 1 combination treatment compared to the control DMSO condition based on the RNA-seq data. Genes resulting in a p-value below 0.01 and an absolute logFoldChange above 0.5 were considered to be differentially expressed. […] The same is true for 1459 of 2414 genes in MDA-MB468.
To identify the genes whose expression is impacted synergistically by the drug combination, we modeled the effect of each drug treatment on expression using a linear model. The expression of each gene after the combination treatment can be thought of as the combined impact of Compound 1, JQ1, and any synergistic interaction between the drug treatments on baseline gene expression. A linear model used to describe this relationship could therefore be represented as:
Gene Expression after combination treatment=Baseline Expression+Compound 1 effect+JQ1 effect+Combination effect (Synergistic Impact)
By fitting the expression data for each gene using this model, we were able to evaluate the effect of each treatment, and identify cases where a synergistic interaction between Compound 1 and JQ1 impacts final gene expression. After fitting the linear model to each gene, the weight and p-value of each term can be evaluated. The combination term's weight signifies the mean change resulting from a synergetic impact on expression, with a negative weight indicating synergistic downregulation. Its associated p-value represents the probability that the combination term is not relevant to final gene expression. Using this approach, we identified 1806 genes in HCC70 and 2205 genes in MDA-MB468 whose expression change in the combination treatment was synergistic and whose associated p-value was less than a threshold cutoff of 0.01. The expression of these synergistic genes could not be explained by an additive effect of Compound 1 and JQ1 alone.

[3] = system: Rad51, CHEK1 and CHEK2 mRNA in MDA-MB-468, MDA-MB-231, Ca1120 and MDA-MB-453; assay: Quantitative PCR of DNA damage repair genes, breast cancer cell lines; type: cell-based; conditions: 50 nM, 6 hrs
Protocol: Breast cancer cell lines MDA-MB-468, MDA-MB-231, Ca1120 and MDA-MB-453 were plated at 200,000 cells/well in a 6-well plate the day before treatment. The next day the cells were treated with vehicle, 50 nM Compound 1 or 50 nM Paclitaxel for 6 hrs, after which cells were harvested and total RNA collected using RNeasy mini kit (Qiagen). Total RNA (500 ng) was reverse transcribed using Quantitect Reverse Transcription kit (Qiagen). Quantitative PCR for each of Rad51, CHEK1 and CHEK2 was performed on QuantStudio 6 Flex (Applied Biosystems) using Power SYBR green PCR master mix (Thermo Fisher Scientific) and primers specific for each of those genes. The change in gene expression, relative to housekeeping gene RPL27, was quantified using DDCt method.

[4] = system: MCL1 protein in KG1 cells; assay: Western blot, AML cell line KG1; type: cell-based; conditions: 50 nM
Protocol: as §1, §2

BR5015 xenografts = assay: TNBC patient-derived xenograft BR5015, tumor volume; type: in vivo, mouse; conditions: 40 mg/kg or 30 mg/kg i.v. BIW
Protocol: Patient-derived xenograft (PDX) models from TNBC patients (BR5010, BR5013, BR5015, and BR5023) were established in NOD-SCID mice at Crown Bioscience (San Diego, USA). Cryo vials containing tumor cells were thawed and prepared for injection into mice. Cells were washed in PBS, counted, and resuspended in cold PBS at a concentration of 50,000-100,000 viable cells/100 ul. Cell suspensions were mixed with an equal volume of Cultrex ECM and kept on ice during transport to the vivarium. Cells were prepared for injections by withdrawing ECM-Cell mixture into a chilled slip-tip syringe fitted with a 26G 7/8 (0.5 mm×22 mm) needle. The filled syringes were kept on ice to avoid the solidification of ECM. Each mouse was inoculated subcutaneously in the right flank with 200 uL of the cell suspension. Tumor sizes were measured in two dimensions using a caliper, and the volumes were expressed in mm^3 using the formula: V=0.5 a×b^2, where a and b are the longest and shortest diameters of the tumor, respectively. Compound 1 treatment was started when the average tumor size reached 150-200 mm^3.
Compound 1 was formulated in w/v 20% Captisol (pH 4-6) and administered by i.v. twice weekly (BIW) at a final dose of 40 mg/kg or 30 mg/kg in a 10 ml/kg volume. Tumor volumes were measured twice weekly over the course of the study. […]

For `CN(C)C/C=C/C(=O)Nc1ccc(C(=O)N[C@@]2(C)CCC[C@@H](Nc3ncc(Cl)c(-c4c[nH]c5ccccc45)n3)C2)nc1` [Compound 1, N-((1S,3R)-3-(5-chloro-4-(1H-indol-3-yl)pyrimidin-2-ylamino)-1-methylcyclohexyl)-5-((E)-4-(dimethylamino)but-2-enamido)picolinamide], the “MCL1 protein level (Western blot)” value [1] was “little effect”, the “Average Expression (TPM) FOXC1” value ([2]; DMSO 33.731) was 25.556 TPM and the “Average Expression (TPM) GATA3” value ([2]; DMSO 34.244) was 21.773 TPM. For the same compound, the “Average Expression (TPM) TGIF1” value ([2]; DMSO 145.88) was 134.08 TPM, the “mRNA expression from genes involved in DNA repair (Rad51, CHEK1, CHEK2)” value [3] was “Downregulation” and the “MCL1 protein level (Western blot)” value [4] was “significant reduction in MCL1”. For the same compound, the “Tumor growth vs untreated historical samples” value (BR5015 xenografts) was “little inhibitory effect on tumor growth”.
